Assay results reported in ChEMBL document CHEMBL5154688, “Design, Synthesis, and Characterization of I-BET567, a Pan-Bromodomain and Extra Terminal (BET) Bromodomain Oral Candidate” (J Med Chem, 2022).
The source made the active and inactive calls. The rule behind the calls is not given here.

What was measured:
[1] = molecular target: T1, Bromodomain-containing protein 4 (Homo sapiens, UniProt O60885); assay: Inhibition of BRD4 BD1 (unknown origin) incubated for 30 mins in presence of fluorescent ligand by TR-FRET method
[2] = molecular target: T1, Bromodomain-containing protein 4; assay: Inhibition of BRD4 BD2 (unknown origin) incubated for 30 mins in presence of fluorescent ligand by TR-FRET method
[3] = Unbound clearance in Wistar Han rat blood at 3 mg/kg, po or 1.3 mg/kg, iv measured upto 24 hrs by LC-MS/MS analysis; type: ADME, organism-based; details: in vivo
[4] = Unbound clearance in Beagle dog blood at 3 mg/kg, po or 1.0 mg/kg, iv by LC-MS/MS analysis; type: ADME, organism-based, Canis lupus familiaris; details: in vivo
[5] = Renal clearance in Wistar Han rat at 3 mg/kg, po or 1.3 mg/kg, iv upto 24 hrs by LC-MS/MS analysis; type: ADME, organism-based; details: in vivo
[6] = Volume of distribution at steady state in Wistar Han rat blood at 3 mg/kg, po or 1.3 mg/kg, iv measured upto 24 hrs by LC-MS/MS analysis; type: ADME, organism-based; details: in vivo
[7] = Unbound volume of distribution at steady state in Beagle dog blood at 3 mg/kg, po or 1.0 mg/kg, iv by LC-MS/MS analysis; type: ADME, organism-based, Canis lupus familiaris; details: in vivo
[8] = Terminal half life in Beagle dog blood at 3 mg/kg, po or 1.0 mg/kg, iv by LC-MS/MS analysis; type: ADME, organism-based, Canis lupus familiaris; details: read-out: beta t1/2 (converted)
[9] = Oral bioavailability in Wistar Han rat blood at 3 mg/kg measured upto 24 hrs by LC-MS/MS analysis; type: ADME, organism-based
[10] = Intrinsic clearance in rat hepatocytes after 60 mins by LC-MS/MS analysis; type: ADME, cell-based, Hepatocyte; details: 1 h
[11] = Renal clearance in Beagle dog assessed as ratio/proportion of renal elimination to total clearance at 3 mg/kg, po or 1 mg/kg, iv by LC-MS/MS analysis; type: ADME, organism-based, Canis lupus familiaris; details: in vivo
[12] = Renal clearance in Wistar Han rat assessed as ratio/proportion of renal elimination to total clearance at 3 mg/kg, po or 1.3 mg/kg, iv measured upto 24 hrs by LC-MS/MS analysis; type: ADME, organism-based; details: in vivo
[13] = molecular target: T1, Bromodomain-containing protein 4; assay: Binding affinity to BRD4 BD1 (unknown origin) assessed as dissociation constant
[14] = tested on: Mus musculus; assay: Antiinflammatory activity in KLH-TNP-induced T-cell dependent immunization CD-1 mouse model assessed as reduction in circulating IgG1 at 30 mg/kg, po administered daily for 14 days followed by administration of KLH-TNP after 1 hr; type: functional; details: CD-1, T-cell, 336 h, time 14 day
[15] = Cmax in KLH-TNP-induced T-cell dependent immunization CD-1 mouse model at 30 mg/kg, po administered daily for 14 days; type: ADME, organism-based; design: time 14 day, dose 30 mg/kg, route po; details: in vivo
[16] = Cmax in KLH-TNP-induced T-cell dependent immunization CD-1 mouse model at 30 mg/kg, po administered every other day for 14 days; type: ADME, organism-based; design: dose 30 mg/kg, time 14 day, route po; details: in vivo
[17] = Cmax in KLH-TNP-induced T-cell dependent immunization CD-1 mouse model at 30 mg/kg, po administered every third day for 14 days; type: ADME, organism-based; design: time 14 day, dose 30 mg/kg, route po; details: in vivo
[18] = AUC(0 to 72 hrs) in KLH-TNP-induced T-cell dependent immunization CD-1 mouse model at 30 mg/kg, po administered every other day for 14 days; type: ADME, organism-based; design: dose 30 mg/kg, time 14 day, route po; details: in vivo
[19] = AUC(0 to 72 hrs) in KLH-TNP-induced T-cell dependent immunization CD-1 mouse model at 30 mg/kg, po administered every third day for 14 days; type: ADME, organism-based; design: dose 30 mg/kg, time 14 day, route po; details: in vivo
[20] = Antiproliferative activity against human NMC 11060 cells assessed as inhibition of proliferation; type: functional, cell-based; details: NUT midline carcinoma
[21] = tested on: NUT midline carcinoma; assay: Antineoplastic activity against human NMC 11060 cells xenografted in SCID mouse assessed as reduction in tumor growth at 3 to 30 mg/kg, po for 20 days; type: functional, organism-based; details: dose 3-30 mg/kg, time 20.0 day
[22] = Unbound Cmax in SCID mouse xenografted with human NMC 11060 cells at 3 to 30 mg/kg, po for 20 days; type: ADME, organism-based; details: in vivo, 480 h, dose 3-30 mg/kg, time 20 day
[23] = Unbound AUC(0 to 24 hrs) in SCID mouse xenografted with human NMC 11060 cells at 3 to 30 mg/kg, po for 20 days; type: ADME, organism-based; details: in vivo, 480 h, dose 3-30 mg/kg, time 20 day
[24] = Antineoplastic activity against human NMC 11060 cells xenografted in SCID mouse assessed as reduction in tumor volume at 10 mg/kg, po for 20 days measured at 8 days of post randomization relative to control; type: functional; details: NMC 11060 cell, 480 h, time 20 day
[25] = Antineoplastic activity against human NMC 11060 cells xenografted in SCID mouse assessed as reduction in tumor volume at 10 mg/kg, po for 20 days measured at 10 days of post randomization relative to control; type: functional; details: NMC 11060 cell, 480 h, time 20 day
[26] = Antineoplastic activity against human NMC 11060 cells xenografted in SCID mouse assessed as reduction in tumor volume at 10 mg/kg, po for 20 days measured at 20 days of post randomization relative to control; type: functional; details: NMC 11060 cell, 480 h, time 20 day
[27] = Antineoplastic activity against human NMC 11060 cells xenografted in SCID mouse assessed as reduction in tumor volume at 30 mg/kg, po for 20 days measured at 6 days of post randomization relative to control; type: functional; details: NMC 11060 cell, 480 h, time 20 day
[28] = Antineoplastic activity against human NMC 11060 cells xenografted in SCID mouse assessed as reduction in tumor volume at 30 mg/kg, po for 20 days measured at 8 days of post randomization relative to control; type: functional; details: NMC 11060 cell, 480 h, time 20 day
[29] = Antineoplastic activity against human NMC 11060 cells xenografted in SCID mouse assessed as reduction in tumor volume at 30 mg/kg, po for 20 days measured at 13 days of post randomization relative to control; type: functional; details: NMC 11060 cell, 480 h, time 20 day
[30] = Antineoplastic activity against human NMC 11060 cells xenografted in SCID mouse assessed as reduction in tumor volume at 30 mg/kg, po for 20 days measured at 15 days of post randomization relative to control; type: functional; details: NMC 11060 cell, 480 h, time 20 day

Structure (SMILES): CC(=O)N1c2ccc(C(N)=O)cc2[C@H](Nc2ncc(Cl)cn2)C[C@@H]1C
- IC50 [1]: 126 nM
- IC50 [2]: 63.1 nM
- CL free [3]: 109 mL/min/kg
- CL free [4]: 20 mL/min/kg
- CL renal at 24 h [5]: 7 mL/min/kg
- Vdss [6]: 2.4 L/kg
- Vduss [7]: 2.9 L/kg
- half-life [8]: 108 min
- bioavailability [9]: 99%
- CLH [10]: < 0.8 mL/min/g
- Ratio [11]: 85%
- Ratio [12]: 28%
- Kd [13]: 25.1 nM
- inhibition in vivo at 30 mg/kg [14]: 98%
- Cmax [15]: 8.5 µM
- Cmax [16]: 8.5 µM
- Cmax [17]: 8.5 µM
- AUC at 336 h [18]: 69 µM·h
- AUC at 336 h [19]: 34 µM·h
- IC50 [20]: 630 nM
- Activity [21]: Active
- fCmax [22]: 2 µM
- fAUC [23]: 10 µM·h
- inhibition in vivo at 10 mg/kg [24]: 62%
- inhibition in vivo at 10 mg/kg [25]: 69%
- inhibition in vivo at 10 mg/kg [26]: 51%
- inhibition in vivo at 30 mg/kg [27]: 70%
- inhibition in vivo at 30 mg/kg [28]: 85%
- inhibition in vivo at 30 mg/kg [29]: 88%
- inhibition in vivo at 30 mg/kg [30]: 92%
